Tests used:
Type in all cases: cell-based
[1] = tested on: VEGF production in hair papilla cells; assay: VEGF production in hair papilla cells (ELISA of culture supernatant); settings: human hair papilla cells, cultured 3 days, vs control
Method: Using a papilla cell growth medium (PCGM) (Toyobo Co., Ltd.), human hair papilla cells (Toyobo Co., Ltd.) were cultured for 4 days on a collagen-coated dish, and seeded on a collagen-coated 48 well plate at a cell density of 1.2×10^4 cells/0.3 mL/well. The cells were cultured for one day in a carbon dioxide incubator (5 volume % carbon dioxide, 37° C.), and used for the evaluation of the VEGF production amount.
For the evaluation of the VEGF production amount, 20 kinds of amino acids were mixed at the composition shown in Table 1, the components other than amino acids were composed as in Dulbecco's modified Eagle medium (DMEM), glucose was added at 1 g/L, and the resulting medium was used as an evaluation medium.
L-citrulline, L-tryptophan, and L-glutamine were respectively dissolved in the evaluation medium to prepare each solution.
In the above-described hair papilla cell culture medium on the collagen-coated plate, the medium was replaced with the evaluation medium, the above-described respective solutions of L-citrulline, L-tryptophan, and L-glutamine were added at a given concentration, and the cells were cultured for 3 days at 37° C., 5 volume % carbon dioxide (n=4 for L-citrulline, L-tryptophan, and L-glutamine at each addition concentration).
(§1) Then, the supernatant of the culture medium was collected, centrifuged at 1500 rpm, and the supernatant was collected and cryopreserved at −30° C.
Similar culture and treatment were performed without adding each solution of L-citrulline, L-tryptophan, and L-glutamine and used as the control.
The concentration of VEGF in the supernatant of the culture was measured by thawing the collected supernatant and using the VEGF Enzyme-Linked ImmunoSorbent Assay (ELISA) kit (Abcam Plc.).
The measurement results were converted to relative values (%) with the VEGF concentration in the control as 100, and shown as mean±standard error in FIGS. 1 to 3.

[2] = tested on: human hair papilla cells; assay: Proliferation of hair papilla cells, citrulline (Cell Counting kit-8); settings: 2 mM, cultured one day, P<0.01, FIG. 5
Method: In the same manner as in Experimental Example 1, human hair papilla cells were cultured for 4 days, and seeded on a collagen-coated 96 well plate at a cell density of 2.5×10^3 cells/0.1 mL/well. The cells were cultured for one day in a carbon dioxide incubator (5 volume % carbon dioxide, 37° C.), and used for the evaluation of the proliferation of hair papilla cells. For the evaluation of the proliferation of hair papilla cells, the same evaluation medium as used in Experimental Example 1 was used.
L-citrulline was dissolved in the evaluation medium to prepare a solution.
In the above-mentioned hair papilla cell culture medium on the collagen-coated plate, the medium was replaced with the evaluation medium, the above-mentioned solution of L-citrulline was added to a concentration of 2 mM, and the cells were cultured for one day at 37° C., 5 volume % carbon dioxide (n=7).
Then the Cell Counting kit-8 (DOJINDO LABORATORIES) was added to each well by 10 μL, the plate was placed in a carbon dioxide incubator (5 volume % carbon dioxide, 37° C.) for 2 hr, and the absorbance at 450 nm was measured using a microplate reader.
Similar culture and treatment were performed without adding the solution of L-citrulline and used as the control.
The measurement results were converted to relative values (%) with the absorbance in the control as 100, and shown as mean±standard error in FIG. 5.

[3] = tested on: FGF7 production in hair papilla cells; assay: FGF7 production in hair papilla cells (ELISA of culture supernatant); settings: human hair papilla cells, cultured 3 days, vs control, P<0.05 or P<0.01, FIG. 4
Method: In the same manner as in Experimental Example 1, human hair papilla cells were cultured for 4 days, and seeded on a collagen-coated 48 well plate at a cell density of 1.2×10^4 cells/0.3 mL/well. The cells were cultured for one day in a carbon dioxide incubator (5 volume % carbon dioxide, 37° C.), and used for the evaluation of the FGF7 production amount. For the evaluation of the FGF7 production amount, the same evaluation medium as in Experimental Example 1 was used.
L-ornithine was dissolved in the evaluation medium to prepare a solution.
In the above-mentioned hair papilla cell culture medium on the collagen-coated plate, the medium was replaced with the evaluation medium, the above-mentioned solution of L-ornithine was added at a given concentration, and the cells were cultured for 3 days at 37° C., 5 volume % carbon dioxide (n=3 at each addition concentration).
Similar culture and treatment were performed without adding the solution of L-ornithine, and used as the control.
as §1
The concentration of FGF7 in the supernatant of the culture was measured by thawing the collected supernatant and using the FGF7 Enzyme-Linked ImmunoSorbent Assay (ELISA) kit (Abcam Plc.). […]

[4] = tested on: human hair papilla cells; assay: Proliferation of hair papilla cells, ornithine (Cell Counting kit-8); settings: cultured one day, P<0.05 or P<0.01, FIG. 6
Method: In the same manner as in Experimental Example 1, human hair papilla cells were cultured for 4 days, and seeded on a collagen-coated 96 well plate at a cell density of 2.5×10^3 cells/0.1 mL/well. The cells were cultured for one day in a carbon dioxide incubator (5 volume % carbon dioxide, 37° C.), and used for the evaluation of the proliferation of hair papilla cells. For the evaluation of the proliferation of hair papilla cells, a medium having the same amino acid composition as the evaluation medium used in Experimental Example 1 and other components diluted at a ¼ concentration was used as the evaluation medium.
L-ornithine was dissolved in the above-mentioned evaluation medium to prepare a solution. […]
Then the Cell Counting kit-8 (DOJINDO LABORATORIES) was added to each well by 10 μL, the plate was placed in a carbon dioxide incubator (5 volume % carbon dioxide, 37° C.) for 2 hr, and the absorbance at 450 nm was measured using a microplate reader. […]
The measurement results were converted to relative values (%) with the absorbance in the control as 100, and shown as mean±standard error in FIG. 6.

SMILES: N[C@@H](Cc1c[nH]c2ccccc12)C(=O)O [L-tryptophan, 2-amino-3-(indolyl)propionic acid]
- addition concentration at which a significant increase in the VEGF production was observed ([1]; P<0.01 or P<0.001, FIGS. 2, 3): not less than 0.01 mM

SMILES: NC(=O)NCCCC(N)C(=O)O [L-citrulline, 2-amino-5-(carbamoylamino)pentanoic acid]
- number of hair papilla cells as compared with the control [2]: significant increase
- addition concentration at which a significant increase in the VEGF production was observed ([1]; P<0.01 or P<0.001, FIG. 1): not less than 4.56 μM

SMILES: NCCCC(N)C(=O)O [L-ornithine, 2,5-diamino pentanoic acid]
- addition concentration at which a significant increase in the FGF7 production amount was observed [3]: not less than 151 μM
- number of hair papilla cells as compared with the control ([4]; 756 μM): significant increase
- number of hair papilla cells as compared with the control ([4]; 3.7 mM): significant increase

SMILES: NC(=O)CCC(N)C(=O)O [L-glutamine, 2-amino-4-carbamoylbutanoic acid]
- addition concentration at which a significant increase in the VEGF production was observed ([1]; P<0.01 or P<0.001, FIGS. 2, 3): not less than 0.44 mM

Source: patent US20230023463A1, “COMPOSITION FOR PROMOTING HAIR THICKENING, COMPOSITION FOR SUSTAINING GROWTH PHASE IN HAIR CYCLE AND COMPOSITION FOR PROMOTING VEGF PRODUCTION, COMPOSITION FOR PROMOTING TRANSITION FROM RESTING PHASE TO GROWTH PHASE IN HAIR CYCLE AND COMPOSITION FOR PROMOTING FGF7 PRODUCTION, AND COMPOSITION FOR …” (priority 2020, published 2023)
